Structures are written as SMILES. Values joined by “and” are separate entries in the source; they are usually repeats but may differ in a detail not shown here. Equal entries are not always repeated. Records with an inconclusive call do not appear.

16 compounds from PubChem BioAssay AID212 (DTP/NCI, 2004) can be followed below.

For the experiment, the system named is BDF1 mice, colon carcinoma 38 sc, T/C %. Kind of experiment: NCI In Vivo Anticancer Drug Screen. Data for tumor model Colon Carcinoma 38 (subcutaneous) in B6D2F1 (BDF1) mice. Particulars: endpoint: median tumor weight (est.), higher = larger tumour. Summed up: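 Compound antitumor activity was assessed in mice carrying transplantable tumors. Survival or tumor size was recorded, and each value is the treated-group measurement divided by that of the vehicle-treated control group.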

Where [1] appears, read: dose: 25.0 mg/kg/injection, schedule: Q07DX002 (ip), vehicle: saline.
Where [2] appears, read: dose: 50.0 mg/kg/injection, schedule: Q07DX002 (ip), vehicle: saline.
[3] abbreviates: dose: 100.0 mg/kg/injection, schedule: Q07DX002 (ip), vehicle: saline.
The mark [4] stands for this setting: dose: 200.0 mg/kg/injection, schedule: Q07DX002 (ip), vehicle: saline.
The mark [5] stands for this setting: dose: 400.0 mg/kg/injection, schedule: Q07DX002 (ip), vehicle: saline.
Where [6] appears, read: dose: 1.56 mg/kg/injection, schedule: Q07DX002 (ip), vehicle: saline with Tween-80.
Setting [7] is: dose: 3.12 mg/kg/injection, schedule: Q07DX002 (ip), vehicle: saline with Tween-80.
[8] abbreviates: dose: 6.25 mg/kg/injection, schedule: Q07DX002 (ip), vehicle: saline with Tween-80.
Where [9] appears, read: dose: 12.5 mg/kg/injection, schedule: Q07DX002 (ip), vehicle: saline with Tween-80.
Where [10] appears, read: dose: 25.0 mg/kg/injection, schedule: Q07DX002 (ip), vehicle: Klucel (hydroxypropylcellulose) (HPC).
Setting [11] is: dose: 50.0 mg/kg/injection, schedule: Q07DX002 (ip), vehicle: Klucel (hydroxypropylcellulose) (HPC).
The mark [12] stands for this setting: dose: 100.0 mg/kg/injection, schedule: Q07DX002 (ip), vehicle: suspension in saline.
Where [13] appears, read: dose: 800.0 mg/kg/injection, schedule: Q07DX002 (ip), vehicle: saline.

As for `c1csc(C[N+]23CN4CN(CN(C4)C2)C3)c1`, the T/C is 77 % of control under setting [1]; 108 % of control under setting [2]; 81 % of control under setting [3]; 97 % of control under setting [4]; 112 % of control under setting [5].

For `O=c1n(CC2CO2)c(=O)n(CC2CO2)n1CC1CO1` (centres undefined), the T/C reads like this: (dose: 12.5 mg/kg/injection, schedule: Q07DX002 (ip), vehicle: saline) 25 % of control; under setting [1], 25 % of control; under setting [2], 18 % of control.

For the compound `C=C1C(=O)C23[C@H](O)C1CC[C@H]2[C@]12COC3(O)[C@@H](O)[C@@H]1C(C)(C)CC[C@@H]2O`, the T/C runs as follows: under setting [6], 104 % of control; under setting [7], 112 % of control and 96 % of control; under setting [8], 100 % of control; under setting [9], 80 % of control.

Take `COc1ccc2[nH]c3c(c2c1)CCNC3CC(C)CCC=C(C)C` (centres undefined): the T/C by setting is: (dose: 12.5 mg/kg/injection, schedule: Q07DX002 (ip), vehicle: Klucel (hydroxypropylcellulose) (HPC)) 88 % of control and 97 % of control; under setting [10], 82 % of control; under setting [11], 57 % of control.

Regarding `CC(=O)C1=C(O)C2(O)C(=O)c3c(c(C)c4ccc(C)c(O)c4c3O)CC2C(N)C1=O` (centres undefined), the T/C was 79 % of control and 95 % of control (dose: 7.5 mg/kg/injection, schedule: Q07DX002 (ip), vehicle: saline + alcohol); 87 % of control and 106 % of control (dose: 15.0 mg/kg/injection, schedule: Q07DX002 (ip), vehicle: saline + alcohol); 95 % of control and 107 % of control (dose: 60.0 mg/kg/injection, schedule: Q07DX002 (ip), vehicle: saline + alcohol); 87 % of control (dose: 120.0 mg/kg/injection, schedule: Q07DX002 (ip), vehicle: saline + alcohol).

With `O=C1C(=O)c2ccccc2C(O)=C1CC=C(Cl)Cl`, the T/C is, setting by setting: (dose: 25.0 mg/kg/injection, schedule: Q07DX002 (ip), vehicle: other) 81 % of control; (dose: 50.0 mg/kg/injection, schedule: Q07DX002 (ip), vehicle: other) 90 % of control; (dose: 100.0 mg/kg/injection, schedule: Q07DX002 (ip), vehicle: other) 124 % of control; (dose: 200.0 mg/kg/injection, schedule: Q07DX002 (ip), vehicle: other) 190 % of control.

In the case of `Cc1cc2nc3c(=O)[nH]c(=O)nc-3n(CC(O)C(O)C(O)C(O)CO)c2cc1C` (centres undefined), the T/C was 100 % of control under setting [2]; 124 % of control under setting [3]; 77 % of control under setting [12]; 108 % of control under setting [4]; 100 % of control under setting [5]; 78 % of control under setting [13]. Further, the T/C was 58 % of control and 69 % of control (dose: 800.0 mg/kg/injection, schedule: Q07DX002 (ip), vehicle: suspension in saline); 72 % of control (dose: 1600.0 mg/kg/injection, schedule: Q07DX002 (ip), vehicle: saline).

Take `Nc1cccc(=O)[nH]1`: the T/C runs as follows: (dose: 25.0 mg/kg/injection, schedule: Q07DX002 (ip), vehicle: suspension in saline) 116 % of control; under setting [2], 92 % of control; (dose: 50.0 mg/kg/injection, schedule: Q07DX002 (ip), vehicle: suspension in saline) 66 % of control; under setting [3], 113 % of control; under setting [12], 87 % of control; under setting [4], 94 % of control. Further, the T/C was 77 % of control (dose: 200.0 mg/kg/injection, schedule: Q07DX002 (ip), vehicle: suspension in saline); 91 % of control under setting [5]; 74 % of control (dose: 400.0 mg/kg/injection, schedule: Q07DX002 (ip), vehicle: suspension in saline); 95 % of control under setting [13].

On to `COC(=O)Nc1cccc(-c2nc3ccc(NC(=O)OC)cc3c(=O)n2-c2ccccc2)c1`, for which the T/C was 78 % of control (dose: 32.0 mg/kg/injection, schedule: Q07DX003 (ip), vehicle: Klucel (hydroxypropylcellulose) (HPC)); 70 % of control (dose: 64.0 mg/kg/injection, schedule: Q07DX003 (ip), vehicle: Klucel (hydroxypropylcellulose) (HPC)); 87 % of control (dose: 128.0 mg/kg/injection, schedule: Q07DX003 (ip), vehicle: Klucel (hydroxypropylcellulose) (HPC)); 30 % of control (dose: 256.0 mg/kg/injection, schedule: Q07DX003 (ip), vehicle: Klucel (hydroxypropylcellulose) (HPC)).

`CCc1ncnc2cc(OCC3CO3)c(OC)cc12` (centres undefined): the T/C is, setting by setting: under setting [1], 93 % of control; under setting [2], 47 % of control.

`O=C1CC(C(=O)N2Cc3cc4ccccc4nc3C2)CO1` (centres undefined): the T/C reads like this: under setting [8], 72 % of control; under setting [9], 100 % of control; (dose: 25.0 mg/kg/injection, schedule: Q07DX002 (ip), vehicle: saline with Tween-80) 101 % of control; (dose: 50.0 mg/kg/injection, schedule: Q07DX002 (ip), vehicle: saline with Tween-80) 122 % of control; (dose: 100.0 mg/kg/injection, schedule: Q07DX002 (ip), vehicle: saline with Tween-80) 124 % of control; (dose: 200.0 mg/kg/injection, schedule: Q07DX002 (ip), vehicle: saline with Tween-80) 100 % of control.

Turning to `O=C(O)Cc1cccc2c(=O)c(-c3ccccc3)c(-c3ccccc3)oc12`, the T/C is, setting by setting: under setting [10], 90 % of control; under setting [11], 92 % of control.

With `CC1=C/C(O)CC(=O)Cc2nc(co2)C(=O)N2CCC=C2C(=O)OC(C(C)C)C(C)/C=C\C(=O)NC/C=C\1` (centres undefined), the T/C by setting is: under setting [11], 109 % of control; (dose: 400.0 mg/kg/injection, schedule: Q07DX002 (ip), vehicle: Klucel (hydroxypropylcellulose) (HPC)) 102 % of control; (dose: 800.0 mg/kg/injection, schedule: Q07DX002 (ip), vehicle: Klucel (hydroxypropylcellulose) (HPC)) 117 % of control.

With `C=CC(=O)N1CN(C(=O)C=C)CN(C(=O)C=C)C1`, the T/C is, setting by setting: under setting [6], 82 % of control; (dose: 1.56 mg/kg/injection, schedule: Q07DX002 (ip), vehicle: saline) 74 % of control; under setting [7], 85 % of control; (dose: 3.12 mg/kg/injection, schedule: Q07DX002 (ip), vehicle: saline) 110 % of control; under setting [8], 104 % of control; (dose: 6.25 mg/kg/injection, schedule: Q07DX002 (ip), vehicle: saline) 90 % of control. For the same compound, the T/C under setting [9] is 120 % of control.

In the case of `CN1C(=O)NC(c2ccc(Cl)cc2)(c2ccc(Cl)cc2)C1=O`, the T/C runs as follows: (dose: 12.5 mg/kg/injection, schedule: Q07DX002 (ip), vehicle: distilled water + Tween-80) 95 % of control; (dose: 25.0 mg/kg/injection, schedule: Q07DX002 (ip), vehicle: distilled water + Tween-80) 105 % of control; (dose: 50.0 mg/kg/injection, schedule: Q07DX002 (ip), vehicle: distilled water + Tween-80) 51 % of control; (dose: 100.0 mg/kg/injection, schedule: Q07DX002 (ip), vehicle: distilled water + Tween-80) 97 % of control; (dose: 200.0 mg/kg/injection, schedule: Q07DX002 (ip), vehicle: distilled water + Tween-80) 52 % of control; (dose: 400.0 mg/kg/injection, schedule: Q07DX002 (ip), vehicle: distilled water + Tween-80) 58 % of control.

For `CC1CN1C(=O)NCCCCCCNC(=O)N1CC1C` (centres undefined), the T/C (dose: 5.0 mg/kg/injection, schedule: Q07DX003 (ip), vehicle: Klucel (hydroxypropylcellulose) (HPC)) is 73 % of control and 90 % of control; the T/C (dose: 20.0 mg/kg/injection, schedule: Q07DX003 (ip), vehicle: Klucel (hydroxypropylcellulose) (HPC)) was 15 % of control and 34 % of control; the T/C (dose: 40.0 mg/kg/injection, schedule: Q07DX003 (ip), vehicle: Klucel (hydroxypropylcellulose) (HPC)) is 34 % of control.
